PubChem BioAssay AID651630 (Sanford-Burnham Center for Chemical Genomics, 2012)
The source made the active and inactive calls.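 The calls were made as follows: active = lipid-stain IC50 at or below a set limit, with nuclear-stain toxicity IC50 at least five times higher; inactive = the rest.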

Columns and labels:
DAPI = assay: triacylglycerol accumulation inhibitor potency, dose response, cell-based, panel, Nile Red and DAPI fluorescence, H9c2 (AID 651630); conditions: H9c2 cells, DAPI nuclear fluorescence (cytotoxicity counter-readout), oleic acid;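 also: cells exposed to compound overnight before fixation and staining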
TAG = assay: as above; conditions: H9c2 cells, Nile Red TAG fluorescence, oleic acid

Compound | IC50 cytotoxicity (DAPI nuclear signal decrease) (DAPI; mean of runs) | IC50 cytotoxicity (DAPI nuclear signal decrease) (DAPI; run 1) [µM] | IC50 cytotoxicity (DAPI nuclear signal decrease) (DAPI; run 2) [µM] | IC50 (TAG; run 1) [µM] | IC50 (TAG; run 2) [µM] | IC50 (TAG; mean of runs)
CCOc1cc2c(cc1O)CCC1C2CCC2(C)C(O)CCC12 (stereo unspecified) | > 25 µM (inactive) | > 25 | > 25 | 17.4 | > 25 | –
COc1ccc(CC(N)c2csc(NC(=O)Nc3ccccc3-c3ccccc3)n2)cc1 (stereo unspecified) | 17.6 µM (inactive) | 19.3 | 15.9 | > 25 | 15.5 | –
Cc1cc(NC(=O)CSc2nc3ccccc3c(=O)n2C2CCCC2)no1 | > 25 µM (inactive) | > 25 | > 25 | 7.24 | 11.2 | 9.22 µM
CS(=O)(=O)c1ccc(C(=O)OCC(=O)N2CCOCC2)cc1[N+](=O)[O-] | > 25 µM (inactive) | > 25 | > 25 | > 25 | > 25 | > 25 µM (inactive)
CC1(C)Cc2c(C#N)c(SCC(=O)c3ccccc3)nc(N3CCOCC3)c2CS1 | > 25 µM (inactive) | > 25 | > 25 | 19.5 | 19.1 | 19.3 µM (inactive)
Cc1cc(N/N=C/c2cccc(Cl)c2)nc(-n2nc(C)cc2C)n1 | > 25 µM (inactive) | > 25 | > 25 | > 25 | > 25 | > 25 µM (inactive)
Cc1cc(NC(=O)c2sccc2C)n(-c2nc3ccccc3[nH]2)n1 | > 25 µM (inactive) | > 25 | > 25 | 19.9 | 20.9 | 20.4 µM (inactive)
CCN(C(=O)COC(=O)c1ccc([N+](=O)[O-])o1)c1cccc2ccccc12 | 20 µM (inactive) | 18.1 | 21.9 | 19.4 | > 25 | –
CCOC(=O)c1c(CSC(=N)N)n(-c2ccccc2)c2cc(Br)c(OC(C)=O)cc12 | > 25 µM (inactive) | > 25 | > 25 | 17.1 | 18.9 | 18 µM (inactive)
O=C1Nc2ccc(Br)cc2/C1=N\N=C\C1=C(N2CCOCC2)C(=C/c2ccccc2)/CC1 | – | > 25 | > 25 | 0.828 | 0.954 | 0.891 µM
COc1cc(C)c2sc3ccccc3c(=O)c2c1NCCN(C)C | > 25 µM (inactive) | > 25 | > 25 | 7.48 | 10.9 | 9.19 µM
N#CC1C=Cc2c(ccc3ccccc23)N1C(=O)c1ccccc1 (stereo unspecified) | > 25 µM (inactive) | > 25 | > 25 | > 25 | > 25 | > 25 µM (inactive)
C=C1c2nc3ccccc3n2C=C(c2ccc(C)cc2)N1c1ccccc1 | > 25 µM (inactive) | > 25 | > 25 | 10.9 | 22.2 | 16.5 µM (inactive)
CCOc1cc(CNC(C)(C)C)ccc1OCC(=O)Nc1cccc(C(F)(F)F)c1 | > 25 µM (inactive) | > 25 | > 25 | 15.5 | 17.2 | 16.3 µM (inactive)
COc1ccc(C2=CC(c3ccc4c(c3)OCO4)c3c(c4ccccc4oc3=O)O2)cc1OC (stereo unspecified) | > 25 µM (inactive) | > 25 | > 25 | 20.6 | 17 | 18.8 µM (inactive)
CCCSc1ccc2nc(NC(=O)OC)[nH]c2c1 | > 25 µM (inactive) | > 25 | > 25 | > 25 | > 25 | > 25 µM (inactive)
COc1cc(/C=C2/NC(=O)N(Cc3ccccc3F)C2=O)ccc1O | > 25 µM (inactive) | > 25 | > 25 | > 25 | > 25 | > 25 µM (inactive)

Compound | IC50 cytotoxicity (DAPI nuclear signal decrease) (DAPI; mean of runs) | IC50 cytotoxicity (DAPI nuclear signal decrease) (DAPI; run 1) [µM] | IC50 cytotoxicity (DAPI nuclear signal decrease) (DAPI; run 2) [µM] | IC50 (TAG; run 1) [µM] | IC50 (TAG; run 2) [µM] | IC50 (TAG; mean of runs)
Cc1ccc(S(=O)(=O)NC2=C(N3CCN(c4ccccc4F)CC3)C(=O)c3ccccc3C2=O)cc1 | > 25 µM (inactive) | > 25 | > 25 | 8.52 | 9.11 | 8.82 µM
CCCC(=O)Nc1nc2ccc(NC(=O)c3ccccc3F)cc2s1 | > 25 µM (inactive) | > 25 | > 25 | 12.4 | 13.6 | 13 µM
COc1ccc2[nH]c3c(c2c1)CCN1C(=O)C(CC(=O)NCC24CC5CC(CC(C5)C2)C4)C[C@H](C(=O)N(C(C)C)C(C)C)[C@@]31C (stereo partly specified) | > 25 µM (inactive) | > 25 | > 25 | 20.8 | > 25 | –
CCCCNc1c(-c2ccc(-c3ccc(C(C)=O)cc3)c(OC)c2)nc2cc(C)ccn12 | > 25 µM (inactive) | > 25 | > 25 | > 25 | 22.5 | –
COc1ccc([C@H]2C[C@H](O)[C@@H](n3cc(-c4ccc(F)cc4)nn3)CN2Cc2cccs2)cc1 | – | 23.6 | > 25 | 12.2 | 24.3 | 18.3 µM (inactive)
Cc1ccc(NC(=O)c2nc[nH]c2C(=O)NCCCCCCNC(=O)c2[nH]cnc2C(=O)Nc2ccc(C)cc2)cc1 | > 25 µM (inactive) | > 25 | > 25 | 8.97 | 9.09 | 9.03 µM
O=C(Nc1ccccc1)c1nc[nH]c1C(=O)NCCCCCCNC(=O)c1[nH]cnc1C(=O)Nc1ccccc1 | > 25 µM (inactive) | > 25 | > 25 | 24.9 | > 25 | –
CCC[C@@H](CN[C@@H](CNC)[C@H](C)CC)NCC1CCC(C(C)(C)C)CC1 (stereo partly specified) | – | > 25 | 24 | > 25 | > 25 | > 25 µM (inactive)
COc1ccc(CCn2c(-n3nc(C)cc3C)nc3c2c(=O)[nH]c(=O)n3C)cc1 | > 25 µM (inactive) | > 25 | > 25 | > 25 | > 25 | > 25 µM (inactive)
COc1cc(OC)cc(C(=O)N2CC(=O)Nc3ccccc32)c1 | > 25 µM (inactive) | > 25 | > 25 | > 25 | > 25 | > 25 µM (inactive)
CCN(CC)CCNc1nc2cc(OC)c(OC)cc2c2nc(-c3ccccc3)nn12 | > 25 µM (inactive) | > 25 | > 25 | > 25 | > 25 | > 25 µM (inactive)
O=C(Cn1cc[n+](CC(=O)c2ccc(Cl)cc2Cl)c1)c1ccc(Cl)cc1Cl | > 25 µM (inactive) | > 25 | > 25 | > 25 | 20.9 | –
COc1cc(C2C(C#N)=C(N)Oc3cc4c(cc32)OCO4)cc(OC)c1OC (stereo unspecified) | > 25 µM (inactive) | > 25 | > 25 | > 25 | 3.52 | –
CC(C)C(C)(C#N)NC(=O)CSc1nc2scc(-c3ccco3)c2c(=O)n1-c1ccccc1 (stereo unspecified) | > 25 µM (inactive) | > 25 | > 25 | 11.4 | 9.69 | 10.5 µM
CC(C)c1ccc(Nc2ncc3c(n2)CCN(C(=O)Nc2ccc(F)c(Cl)c2)C3)cc1 | – | > 25 | > 25 | 2.95 | 6.36 | 4.65 µM
O=C(Nc1cccc2ncccc12)c1ccc(Cl)cc1 | > 25 µM (inactive) | > 25 | > 25 | 6.27 | 6.17 | 6.22 µM
COc1cc(OC)c2c(-c3ccccc3)cc(=O)oc2c1C(CCN1CCCC(C)C1)c1ccc2c(c1)OCO2 (stereo unspecified) | > 25 µM (inactive) | > 25 | > 25 | > 25 | 13.7 | –
